Experimental data as given in article PMC11801715, “Activating PKC-ε induces HIV expression with improved tolerability” (PLOS Pathogens, 2025).

What was measured:
PKC-ε = molecular target: T1, PKC-ε (Homo sapiens, UniProt Q02156); experiment: PKC isoform translocation in A549-tGFP cells; format: cell-based; design: host or cells: A549; conditions: for EC50: A549-tGFP cells, 60 minutes; for ε selectivity, PKC-ε: EC50 of PKC-ε divided by EC50 of PKC-ε
T1 sequence (Q02156 1-737): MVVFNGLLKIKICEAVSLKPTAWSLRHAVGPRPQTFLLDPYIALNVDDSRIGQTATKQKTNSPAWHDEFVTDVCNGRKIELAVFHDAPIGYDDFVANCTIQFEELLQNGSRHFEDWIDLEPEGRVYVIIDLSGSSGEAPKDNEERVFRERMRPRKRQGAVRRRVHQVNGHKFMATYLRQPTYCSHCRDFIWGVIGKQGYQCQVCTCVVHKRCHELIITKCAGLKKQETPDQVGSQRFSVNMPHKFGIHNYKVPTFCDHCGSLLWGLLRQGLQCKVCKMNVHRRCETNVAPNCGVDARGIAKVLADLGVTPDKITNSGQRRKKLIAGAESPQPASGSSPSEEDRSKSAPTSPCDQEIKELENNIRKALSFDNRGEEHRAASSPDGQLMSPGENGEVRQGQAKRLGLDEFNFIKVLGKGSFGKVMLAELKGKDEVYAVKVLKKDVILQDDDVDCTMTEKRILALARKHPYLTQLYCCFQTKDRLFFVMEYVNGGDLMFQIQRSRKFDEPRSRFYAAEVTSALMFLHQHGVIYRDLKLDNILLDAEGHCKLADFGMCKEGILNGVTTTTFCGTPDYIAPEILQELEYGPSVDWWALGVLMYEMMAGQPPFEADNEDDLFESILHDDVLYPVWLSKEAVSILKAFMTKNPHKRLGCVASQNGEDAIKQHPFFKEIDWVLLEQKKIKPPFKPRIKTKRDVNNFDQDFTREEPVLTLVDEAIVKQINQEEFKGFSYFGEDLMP
Description: Using these findings we embarked on new designs for DAG-lactones with additional substituents from the ester moiety in combination with a few olefin substituents. A description of this effort is reported elsewhere.
Cellular translocation of PKC isoforms upon activation was determined in 8 A549 cell lines, each expressing a single PKC isoform fused to tGFP (PhenoVista Biosciences). Cells were plated in 384-well plates (80 μL/well) at 10^5 cells/mL in RPMI with 10% FBS and rested overnight. PKC agonist(s) were serially diluted at 1:3 steps in DMSO and added to the cells. After 60 minutes in an incubator at 37 °C, 5% CO2, cells were stained with Hoechst-33342 and fixed with 2% paraformaldehyde for 30 minutes at 4 °C. Cells were then stained with wheat germ agglutinin conjugated to AlexaFluor647 (WGA-647) for 10 minutes at 4 °C, washed to remove excess dye and imaged with Cellomics Array Scan (Thermo Fisher) at room temperature (RT). Images were analyzed using Cellomics automated image analysis algorithm. Plasma membrane translocation was quantified using the ratio between the average fluorescence in the areas at the cell edge defined by WGA-647 and the cytoplasm region.

[1] = tested on: platelets (CD62P+) and CD4+ T cells (CD69+) in whole blood; experiment: In vitro whole blood platelet and CD4+ T-cell activation assay; format: cell-based, human; conditions: for CD62P EC50/CD69 EC50 ratio Geomean: whole blood from healthy donors, platelets to CD4+ T cells
Description: We developed a novel human whole blood assay to determine whether other PKC agonists also activate platelets at the same concentrations that are required to activate CD4^+ T cells. Platelet activation was assessed by CD62P (P-selectin), which traffics to the cell surface upon activation and α-granule release. CD4^+ T-cell activation was assessed by CD69 upregulation (Fig 7A).
Whole blood was drawn into sodium citrate tubes using a 21-gauge needle. To prevent potential interference from tissue thromboplastin released during venipuncture, which could affect the accuracy of coagulation testing, the first 2 mL of blood drawn was discarded. PKC agonist molecules were dispensed in a dilution series into 80 μL of blood per well in a flat-bottom 96-well plate and mixed gently. Care was taken not to introduce any mechanical stress-related activation of platelets. […] The remaining 72 μL of blood in the first plate was incubated for 1 additional hour and stained with anti-human CD3 (UCHT1), CD4 (SK3), and CD69 (FN50) (30 minutes in the dark). Red blood cell lysis and fixing was done using BD lyse/fix solution. Stained cells were acquired on BD LSR Fortessa II after washing. […] EC50 values for platelet and CD4 T-cell activation for each agonist was obtained by nonlinear regression curve fit using GraphPad Prism version 9.3.0.

[2] = tested on: EGR1 and CD69 mRNA in whole blood; experiment: EGR1 and CD69 mRNA levels in rat blood (QuantiGene); format: in vivo
Description: EGR1 and CD69 mRNA expression levels were measured in whole blood, processed using Affymetrix QuantiGene Sample Processing Kit (Thermo Fisher Scientific, catalog QS0111). Quantigene multiplex analysis was performed on 1:3 diluted blood using probes specific for rat EGR1 (Thermo Fisher Scientific, catalog nm_012551) and CD69 (catalog nm_134327), as per the kit’s instructions (Thermo Fisher Scientific, catalog QP-1014) and normalized to PPIB (catalog nm_022536) and β-actin (catalog nm_031144).

platelet-rich plasma = experiment: Platelet aggregation assay (light transmittance aggregometry); format: cell-based, human
Description: Given that C-232A induced DIC in rats and monkeys, we tested whether C-232A could directly induce platelet activation and downstream aggregation. […] Adenosine diphosphate, a known platelet agonist, was used as a positive control (S7A Fig).
Aggregation of platelets was assessed using light transmittance aggregometry using standard methods.
(A) Assay principle for platelet aggregation assay.

Structure (SMILES)	EC50 (PKC-ε) [nM]	ε selectivity, PKC-ε (PKC-ε)	CD62P EC50/CD69 EC50 ratio Geomean [1]	EGR1 and CD69 transcription ([2]; 0.1-3 mg/kg)	relative potency for platelet aggregation (platelet-rich plasma)	platelet aggregation (platelet-rich plasma; dilution series, 20 minutes)	more potent for PKC-ε translocation compared with PKC-η and PKC-θ (PKC-ε; A549-PKC-tGFP reporter cells)	more potent for PKC-ε translocation than PKC-δ (PKC-ε; A549-PKC-tGFP reporter cells) [fold]	more potent for T-cell activation relative to platelet activation ([1]; whole blood) [fold]	improvement relative to the other classes of PKC agonists tested ([1]; whole blood, T-cell versus platelet potency)	EGR1 and CD69 mRNA induction versus C-232A (1 mg/kg) ([2]; 10 mg/kg)	platelet aggregation at concentrations below 10 μM (platelet-rich plasma; 20-minute stimulation)
Cc1ccc(C#Cc2ccc3oc(CC(C)(C)C(=O)OCC4(CO)CC(=CCC(CC(C)C)CC(C)C)C(=O)O4)cc3c2)cc1 (stereo not shown) [C-232A]	58	1	1.7	dose-dependent increases in EGR1 and CD69 transcription	less potent than prostratin	stimulated platelet aggregation	–	–	–	–	–	–
Cc1ccc(C#Cc2ccc(C(=O)OCC3(CO)Cc4c(-c5ccccc5)ccnc4O3)cc2)cc1 (stereo not shown) [C-233]	240	1	5.1	–	less potent than C-232A and prostratin	–	5- to 6 fold	~200	5	2.4- to 3 fold	higher induction of EGR1 and CD69 mRNA levels	little or no aggregation
